Results: patent US9884806B2, “Cyclic vinylogous amides as bromodomain inhibitors” (ICAHN SCHOOL OF MEDICINE AT MOUNT SINAI, priority 2013, dated 2018)

Legend:
[1] = molecular target: T1, first bromodomain (BrD1) of human BRD4 (Homo sapiens, UniProt O60885); test: Fluorescence anisotropy binding assay (competition with FITC-labeled MS417 probe); conditions: FITC-MS417 probe 80 nM, PBS pH 7.4, 1 hour, 25° C., read-out: BRD4_1 IC50
T1 construct: the first bromodomain (BrD1) of human BRD4; poly-His (cleaved yes); made in house
Description: Fluorescence Anisotropy Binding Assay
Expression and purification of the first bromodomain (BrD1) of human BRD4 in poly-His tag form was performed using a procedure described in the literature [See Zeng et al. Structure 16, 643-652 (2008) and Zhang et al., J Biol Chem 287, 28840-28851 (2012).] The protein was purified by using affinity chromatography on a nickel-IDA column (Invitrogen), followed by the removal of poly-His tag by thrombin cleavage.
Binding affinity of the newly synthesized compounds to the BRD4 BrD1 was assessed in a fluorescence anisotropy assay using a fluorescein isothiocyanate (FITC)-labeled MS417 as an assay probe (Zhang et al. 2008 op.cit.). Competition binding was performed with a BrD protein (0.25 to 1 μM) and the fluorescent probe (80 nM), and increasing concentration of unlabeled competing ligand in a PBS buffer (pH 7.4) in total volume of 80 μL. Measurements were obtained after 1 hour incubation of the fluorescent ligand and the protein at 25° C. with Safire 2 microplate reader (Tecan). In the assay, fluorescent ligand concentration was ≦2Kd, and protein concentration was set at which 50-80% of fluorescent ligand is bound. Dissociation constant of a competing ligand was calculated with the correction to Cheng-Prussoff equation introduced by Nicolovska-Coleska and colleagues [Nikolovska-Coleska, Z. et al., Anal Biochem 332, 261-273 (2004). Assuming one-site competitive binding model, the equation used to calculate Ki's from IC50 values recovered from fitting data using Prism:
[formula] where [I50] is the concentration of free inhibitor at 50% inhibition, [L50], the concentration of free labeled ligand at 50% inhibition, and [P0], concentration of free protein at 0% inhibition. Note that Kd for each protein-probe pair is the limit of resolvable Ki in a competition assay.

BRD4_2 = molecular target: T2, BRD4_2 (Homo sapiens, UniProt O60885); test: Fluorescence anisotropy binding assay (competition with FITC-labeled MS417 probe), BRD4_2; conditions: FITC-MS417 probe 80 nM, PBS pH 7.4, 1 hour, 25° C.
T2 construct: contains two tandem bromodomains (BrD1 and BrD2)

Row | Structure (SMILES) | IC50 [1] [µM] | IC50 (BRD4_2) [µM]
1 | CC1=C(Nc2cc(C(=O)Nc3cccc(C(=O)O)c3C)ccc2Cl)CCCC1=O [Example 04-95, 3-(4-chloro-3-((2-methyl-3-oxocyclohex-1-en-1-yl)amino)benzamido)-2-methylbenzoic acid] | > 10 | > 10
2 | CC1=C(Nc2ccc(C(=O)Nc3ccccc3)c(Cl)c2)CCC1=O [Example 04-45, 2-chloro-4-((2-methyl-3-oxocyclopent-1-en-1-yl)amino)-N-phenylbenzamide] | > 10 | > 10
3 | CC1=C(NC2CCN(C(=O)OC(C)(C)C)CC2)CCC1=O [Example 01-32, tert-Butyl 4-((2-methyl-3-oxocyclopent-1-en-1-yl)amino)piperidine-1-carboxylate] | > 10 | > 10
4 | CC1=C(Nc2ccc(C(=O)N(C)C)cc2)CCC1=O [Example 03-20, N,N-dimethyl-4-((2-methyl-3-oxocyclopent-1-en-1-yl)amino)benzamide] | > 10 | > 10
5 | CC1=C(Nc2cccc(C(=O)O)c2)CCC1=O [Example 01-3] | > 10 | 1 to 10
6 | N#CC1=C(Nc2cc(C(=O)O)ccc2Cl)CCCC1=O [Example 05-33, 4-chloro-3-((2-cyano-3-oxocyclohex-1-en-1-yl)amino)benzoic acid] | > 10 | > 10
7 | COC(=O)c1cccc(NC(=O)c2ccc(Cl)c(NC3=C(C)C(=O)CCC3)c2)c1C [Example 04-92, methyl 3-(4-chloro-3-((2-methyl-3-oxocyclohex-1-en-1-yl)amino)benzamido)-2-methylbenzoate] | 1 to 10 | > 10
8 | CC1=C(Nc2cccc(N)c2Cl)CCCC1=O [Example 02-11, 3-((3-amino-2-chlorophenyl)amino)-2-methylcyclohex-2-enone] | 1 to 10 | > 10
9 | CC1=C(N[C@H]2CC[C@H](C(=O)Nc3ccccc3C)CC2)CCC1=O [Example 04-30, (1R,4R)-4-((2-methyl-3-oxocyclopent-1-en-1-yl)amino)-N-(o-tolyl)cyclohexanecarboxamide] | > 10 | > 10
10 | CC1=C(Nc2cccc(S(N)(=O)=O)c2)CCC1=O [Example 01-45, 3((2-methyl-3-oxocyclopent-1-en-1-yl)amino)benzenesulfonamide] | 1 to 10 | 1 to 10
11 | CC1=C(Nc2ccc(C(=O)O)cc2Cl)CCC1=O [Examples 02-2] | 1 to 10 | 1 to 10
12 | CNC(=O)c1ccc(NC2=C(C)C(=O)CC2)c(Cl)c1 [Example 04-13, 3-chloro-N-methyl-4-((2-methyl-3-oxocyclopent-1-en-1-yl)amino)benzamide] | 1 to 10 | 1 to 10
13 | COc1ccc(NC(=O)c2ccc(NC3=C(C)C(=O)CC3)cc2)cc1 [Example 03-6] | 1 to 10 | 1 to 10
14 | CC1=C(Nc2cc(C(=O)Nc3ccc(C(=O)O)cc3C)ccc2Cl)CCCC1=O [Example 04-97, 4-(4-chloro-3-((2-methyl-3-oxocyclohex-1-en-1-yl)amino)benzamido)-3-methylbenzoic acid] | 1 to 10 | > 10
15 | CC1=C(Nc2ccc(C#N)cc2)CCC1=O [Example 01-7] | > 10 | > 10
16 | CC1=C(Nc2cc(S(N)(=O)=O)ccc2Cl)CCC1=O [Example 01-46, 4-chloro-3-((2-methyl-3-oxocyclopent-1-en-1-yl)amino)benzene-sulfonamide] | 1 to 10 | 1 to 10
17 | CC1=C(Nc2ccc(C(=O)Nc3cccc4ccccc34)cc2)CCC1=O [Example 03-16, 4-((2-methyl-3-oxocyclopent-1-en-1-yl)amino)-N-(naphthalen-1-yl)benzamide] | 1 to 10 | 1 to 10
18 | COc1cc(NC2=C(C)C(=O)CC2)ccc1C(=O)Nc1cccc(C)c1 [Example 04-73, 2-methoxy-4-((2-methyl-3-oxocyclopent-1-en-1-yl)amino)-N-(m-tolyl)benzamide] | 1 to 10 | 1 to 10
19 | CC1=C(Nc2ccc(C(=O)Nc3cccc4ccccc34)c(Cl)c2)CCC1=O [Example 04-44, 2-chloro-4-((2-methyl-3-oxocyclopent-1-en-1-yl)amino)-N-(naphthalen-1-yl)-benzamide] | 1 to 10 | > 10
20 | CC1=C(Nc2ccc(C(=O)Nc3ccc(C)cc3)c(Cl)c2)CCC1=O [Example 04-51, 2-chloro-4-((2-methyl-3-oxocyclopent-1-en-1-yl)amino)-N-(p-tolyl)benzamide] | > 10 | > 10
21 | CC1=C(Nc2ccc(C(=O)O)cc2Br)CCC1=O [Examples 02-7] | 1 to 10 | > 10
22 | CC1=C(Nc2ccc(C(=O)Nc3ccccc3)cc2)CCC1=O [Example 03-1] | 1 to 10 | 1 to 10
23 | CC1=C(Nc2ccc(C(=O)Nc3ccc(C)cc3)cc2Cl)CCC1=O [Example 04-22, 3-chloro-4-((2-methyl-3-oxocyclopent-1-en-1-yl)amino)-N-(p-tolyl)benzamide] | 1 to 10 | 1 to 10

Continued, values first:

Row | IC50 [1] [µM] | IC50 (BRD4_2) [µM] | Structure (SMILES)
24 | 1 to 10 | 1 to 10 | COc1cc(C(=O)Nc2ccc(C)cc2)ccc1NC1=C(C)C(=O)CC1 [Example 04-62, 3-methoxy-4-((2-methyl-3-oxocyclopent-1-en-1-yl)amino)-N-(p-tolyl)benzamide]
25 | 1 to 10 | 1 to 10 | CC1=C(Nc2ccc(C(=O)O)cc2I)CCC1=O [Examples 02-8]
26 | 1 to 10 | 1 to 10 | COc1ccc(NC(=O)c2ccc(NC3=C(C)C(=O)CC3)cc2Cl)cc1 [Example 04-48, 2-chloro-N-(4-methoxyphenyl)-4-((2-methyl-3-oxocyclopent-1-en-1-yl)amino)-benzamide]
27 | 1 to 10 | 1 to 10 | CC1=C(Nc2ccc(C(=O)Nc3ccc(C)cc3)cc2C)CCC1=O [Example 04-86, 3-methyl-4-((2-methyl-3-oxocyclopent-1-en-1-yl)amino)-N-(p-tolyl)benzamide]
28 | < 1 | 1 to 10 | CC1=C(Nc2cccc(-c3cn(Cc4ccccc4F)nn3)c2)CCC1=O [Examples 06-8]
29 | 1 to 10 | 1 to 10 | COc1cc(C(=O)Nc2cccc(C)c2)ccc1NC1=C(C)C(=O)CC1 [Example 04-61, 3-methoxy-4-((2-methyl-3-oxocyclopent-1-en-1-yl)amino)-N-(m-tolyl)benzamide]
30 | 1 to 10 | > 10 | CC1=C(Nc2cccc(NC(=O)c3ccccc3C)c2Cl)CCCC1=O [Example 05-50, N-(2-chloro-3-((2-methyl-3-oxocyclohex-1-en-1-yl)amino)phenyl)-2-methylbenzamide]
31 | < 1 | 1 to 10 | CC1=C(Nc2cccc(NS(=O)(=O)C3CCCCC3)c2Cl)CCCC1=O [Example 05-71, N-(2-chloro-3-((2-methyl-3-oxocyclohex-1-en-1-yl)amino)phenyl)-cyclohexanesulfonamide]
32 | 1 to 10 | 1 to 10 | CC1=C(Nc2ccc(C(=O)Nc3ccccc3)cc2C)CCC1=O [Example 04-80, 3-methyl-4-((2-methyl-3-oxocyclopent-1-en-1-yl)amino)-N-phenylbenzamide]
33 | < 1 | 1 to 10 | CC1=C(Nc2cccc(-c3cn(Cc4ccccc4C)nn3)c2)CCC1=O [Example 06-10, 2-methyl-3-((3-(1-(2-methylbenzyl)-1H-1,2,3-triazol-4-yl)phenyl)amino)cyclopent-2-enone]
34 | 1 to 10 | 1 to 10 | COc1ccccc1NC(=O)c1ccc(NC2=C(C)C(=O)CC2)c(C)c1 [Example 04-81, N-(2-methoxyphenyl)-3-methyl-4-((2-methyl-3-oxocyclopent-1-en-1-yl)amino)-benzamide]
35 | 1 to 10 | 1 to 10 | CC1=C(Nc2ccc(C(=O)Nc3cccc(C)c3)cc2C)CCC1=O [Example 04-85, 3-methyl-4-((2-methyl-3-oxocyclopent-1-en-1-yl)amino)-N-(m-tolyl)benzamide]
36 | 1 to 10 | 1 to 10 | CC1=C(Nc2cccc(C(=O)NC3CCCCC3)c2)CCC1=O [Example 04-1]
37 | < 1 | 1 to 10 | COc1cc(NC2=C(C)C(=O)CC2)ccc1C(=O)Nc1ccccc1C [Example 04-72, 2-methoxy-4-((2-methyl-3-oxocyclopent-1-en-1-yl)amino)-N-(o-tolyl)benzamide]
38 | < 1 | 1 to 10 | CC1=C(Nc2ccc(C(=O)NC3CCCCC3)cc2Cl)CCC1=O [Example 04-14, 3-chloro-N-cyclohexyl-4-((2-methyl-3-oxocyclopent-1-en-1-yl)amino)benzamide]
39 | < 1 | 1 to 10 | CC1=C(Nc2ccc(-c3cn(Cc4ccccc4)nn3)cc2)CCC1=O [Example 06-28]
